In patent US20250281483A1, “TRANSCRIPTION FACTOR EB ACTIVATORS AND USES THEREOF” (Astellas Engineered Small Molecules US, Incorporated, priority 2022, published 2025):

Experiments:
[1] = In Vitro Liver Microsomes Metabolic Stability Assay, mouse; type: in vitro ADME; settings: mouse liver microsomes 0.5 mg/mL, 1 μM compound, NADPH, 0 and 30 min; scale-up CLint; read-out: CLint, Mouse LM
Method: (§1) In Vitro Liver Microsomes Metabolic Stability Assay of Different Species
(§2) 1. The liver microsomes were stored at −80° C. prior to use.
(§3) 2. The master solution was prepared according to Table 3.
(§4) 3. 40 μL of 10 mM NADPH solution was added to each well. The final concentrations of NADPH was 1 mM. The mixture was pre-warmed at 37° C. for 5 minutes. The negative control samples were prepared by replacing NADPH solutions with 40 μL of ultra-pure H2O. The negative control was used to exclude the misleading factor that resulted from instability of chemical itself. Samples with NADPH were prepared in duplicate. Negative controls were prepared in singlet.
(§5) 4. The reaction was started with the addition of 2 μL of 200 μM control compound or test compound solutions. Verapamil was used as positive control in this study. The final concentration of test compound or control compound was 1 μM.
(§6) 5. Aliquots of 50 μL were taken from the reaction solution at 0 and 30 minutes. The reaction was stopped by the addition of 4 volumes of cold acetonitrile with Internal Standard (100 nM alprazolam, 200 nM imipramine, 200 nM labetalol and 2 μM ketoprofen). Samples were centrifuged at 3, 220 g for 40 minutes. Aliquot of 90 μL of the supernatant was mixed with 90 μL of ultra-pure H2O and then used for LC-MS/MS analysis.
(§7) Peak areas were determined from extracted ion chromatograms. The slope value, k, was determined by linear regression of the natural logarithm of the remaining percentage of the parent drug vs. incubation time curve.
(§8) The in vitro half-life (in vitro t1/2) was determined from the slope value:
(§9) Conversion of the in vitro t1/2 (min) into the in vitro intrinsic clearance (in vitro CLint, in μL/min/mg protein) was done using the following equation (mean of duplicate determinations): […]
(§10) Conversion of the in vitro t1/2 (min) into the scale-up unbound intrinsic clearance (Scale-up CLint, in mL/min/kg) was done using the following equation (mean of duplicate determinations): […]

[2] = target: T1, TFEB (Homo sapiens, UniProt P19484); assay: Tfeb-Translocation Assay HEK-293T-oEX-Tfeb-GFP Cell Line; type: cell-based; settings: HEK-293T-oEX-TFEB-GFP cells; translocation positive cells ratio; read-out: TFEB Translocation EC50
T1 sequence (P19484 1-476): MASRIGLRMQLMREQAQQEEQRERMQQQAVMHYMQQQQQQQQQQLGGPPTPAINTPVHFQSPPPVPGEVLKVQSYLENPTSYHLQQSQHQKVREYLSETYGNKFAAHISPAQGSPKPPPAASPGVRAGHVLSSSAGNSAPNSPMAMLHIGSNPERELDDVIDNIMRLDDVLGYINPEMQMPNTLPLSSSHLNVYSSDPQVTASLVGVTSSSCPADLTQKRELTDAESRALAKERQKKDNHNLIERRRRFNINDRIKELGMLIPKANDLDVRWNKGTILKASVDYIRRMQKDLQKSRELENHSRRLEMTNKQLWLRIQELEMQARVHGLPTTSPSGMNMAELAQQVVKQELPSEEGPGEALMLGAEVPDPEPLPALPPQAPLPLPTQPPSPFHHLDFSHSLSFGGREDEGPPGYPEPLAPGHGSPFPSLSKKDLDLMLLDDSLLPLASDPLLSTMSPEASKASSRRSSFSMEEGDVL
Outline: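 HEK-293T cells overexpressing Tfeb-GFP were treated for 6 or 18 h at 37 °C with 10-point 3- or 2-fold dilutions from 50 µM (Torin 1 reference from 300 nM), then PFA-fixed and Hoechst-stained. Cells with nuclear/perinuclear EGFP ratio 1.2 among EGFP-positive cells were scored as translocation-positive; DMSO set to ~15% for normalization.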

[3] = In Vitro Liver Microsomes Metabolic Stability Assay, human; type: in vitro ADME; settings: human liver microsomes 0.5 mg/mL, 1 μM compound, NADPH, 0 and 30 min; scale-up CLint; read-out: CLint, Human LM
Method: as §1, §2, §3, §4, §5, §6, §7, §8, §9, §10

[4] = In Vitro Liver Microsomes Metabolic Stability Assay, rat; type: in vitro ADME; settings: rat liver microsomes 0.5 mg/mL, 1 μM compound, NADPH, 0 and 30 min; scale-up CLint; read-out: CLint, Rat LM
Method: as §1, §2, §3, §4, §5, §6, §7, §8, §9, §10

| Compound | CLint scaled at 1 μM [1] [mL/min/kg] | EC50 [2] [nM] | CLint scaled at 1 μM [3] [mL/min/kg] | CLint scaled at 1 μM [4] [mL/min/kg] |
| --- | --- | --- | --- | --- |
| Cc1cccc(CNC(=O)c2cc3c(=O)n(Cc4ccccc4)ccc3nc2C)n1 [Example 6, 6-benzyl-2-methyl-N-((6-methylpyridin-2-yl)methyl)-5-oxo-5,6-dihydro-1,6-naphthyridine-3-carboxamide] | 414 | 100 to 1000 | 16 | 217 |
| Cc1nc2ccn(Cc3ccccc3)c(=O)c2cc1C(=O)NCc1ccccn1 [Example 7, 6-benzyl-2-methyl-5-oxo-N-(pyridin-2-ylmethyl)-5,6-dihydro-1,6-naphthyridine-3-carboxamide] | 91 | 100 to 1000 | 2 | 28 |
| Cc1nc2ccn(Cc3ccccc3)c(=O)c2cc1C(=O)NCc1ccccc1 [Example 17, N,6-dibenzyl-2-methyl-5-oxo-5,6-dihydro-1,6-naphthyridine-3-carboxamide] | 470 | 100 to 1000 | 15 | 163 |
| Cc1nc(CNC(=O)c2cc3c(=O)n(Cc4ccccc4)ccc3nc2C)co1 [Example 18, 6-benzyl-2-methyl-N-((2-methyloxazol-4-yl)methyl)-5-oxo-5,6-dihydro-1,6-naphthyridine-3-carboxamide] | 140 | 100 to 1000 | 4 | 73 |
| Cc1nc2ccn(Cc3ccc(Cl)cc3)c(=O)c2cc1C(=O)NCc1ccccn1 [Example 31, 6-(4-chlorobenzyl)-2-methyl-5-oxo-N-(pyridin-2-ylmethyl)-5,6-dihydro-1,6-naphthyridine-3-carboxamide] | 132 | < 100 | 1 | 55 |
| Cc1nc2ccn(Cc3ccccc3)c(=O)c2cc1C(=O)NCc1cc(F)c(F)cn1 [Example 50, 6-benzyl-N-((4,5-difluoropyridin-2-yl)methyl)-2-methyl-5-oxo-5,6-dihydro-1,6-naphthyridine-3-carboxamide] | 124 | < 100 | 3 | 70 |
